Test results reported in patent publication US11306063B2, “Heterocyclic naphthoquinones derivatives for use in the treatment of cancers including Cushing disease” (Commissariat a l'Energie Atomique et aux Energies …, priority 2016, dated 2022).
Read-outs that look alike come from different tables or passages of the source. Blank lines part the entries; values can stand above or below the molecule they belong to.

Legend:
[1] = system: H1975 cells; test: Cytotoxicity assay (PrestoBlue cell viability), H1975; assay type: cell-based, human; conditions: Homo sapiens, NCI-H1975, 48 h
Protocol: (§1) Messa, Messa DX5, HCT116, HEK-293, PC-3, LNCaP, HCC827 and H1975 cell lines are issued from the American Type Culture Collection (ATCC).
(§2) For cytotoxicity assays, cells were seeded in 96-well microplates 24 hours before the addition of increasing concentrations of each compound in the culture medium. Cell viability was analyzed 48 hours following addition of each compound through the monitoring of mitochondrial […] activity using PrestoBlue® Cell Viability Reagent (Invitrogen; #A-13261). Paclitaxel was used as a control which is cytotoxic on various cancerous cells although not on chemoresistant MESSA DX5 lineage.

[2] = biological target: T1, USP8^CD (purified catalytic domain of USP8) (Homo sapiens, UniProt P40818); test: Inhibition of purified USP8^CD enzymatic activity (Ub-AMC or Ub-Rho substrate); assay type: biochemical; conditions: for inhibition at 1 µM: 1 μM compound
T1 construct: the purified catalytic domain of USP8 (USP8^CD, in-house purified); made in house; host or cells: E. coli BL21 Gold
T1 sequence (P40818 777-1109 limits assumed): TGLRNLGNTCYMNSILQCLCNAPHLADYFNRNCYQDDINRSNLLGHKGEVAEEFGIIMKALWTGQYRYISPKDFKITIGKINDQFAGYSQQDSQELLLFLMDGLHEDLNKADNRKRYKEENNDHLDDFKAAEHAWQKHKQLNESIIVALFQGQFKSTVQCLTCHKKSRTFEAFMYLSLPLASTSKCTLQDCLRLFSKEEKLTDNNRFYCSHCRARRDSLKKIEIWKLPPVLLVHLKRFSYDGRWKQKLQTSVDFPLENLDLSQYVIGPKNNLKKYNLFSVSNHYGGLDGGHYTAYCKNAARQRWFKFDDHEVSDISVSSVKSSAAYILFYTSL
Protocol: (§3) USP2CD or USP8CD were expressed in E. coli BL21 Gold. Cells were grown in LB Miller to mid-log phase and induced by addition of 0.5 mM IPTG for USP2CD for 5 h at 20° C., while 1 mM IPTG was added for USP8CD for 3 h at 37° C. Then, cells were harvested and frozen at −80° C.
For His-tagged USP8CD, cells were resuspended in buffer A (50 mM TRIS pH 8.0, 500 mM NaCl, 2 mM Imidazole) and lysed using a sonicator. The lysate was clarified by centrifugation and applied to Ni Sepharose6 Fast Flow resin (GE Healthcare). The resin was sequentially washed first with buffer A containing 10 mM Imidazole then with buffer A containing 20 mM Imidazole, and finally with buffer A containing 50 mM Imidazole. Protein sample was eluted from the resin using buffer A containing 300 mM Imidazole. The eluted protein was buffer exchanged by gel-filtration on a Superdex 200 10/300 GL column (GE Healthcare) equilibrated in Buffer B (20 mM HEPES pH 7.5, 300 mM NaCl, 2 mM dithiothreitol (DTT)).
(§4) Enzymatic assay was performed in a HEPES buffer (50 mM pH7.6 1 mM DTT, 2% glycerol, 0.5 mM EDTA) or in a Tris buffer (40 mM pH7.4 1 mM DTT, 5% glycerol, 0.05 mg/ml BSA) respectively, following manufacturer's instructions. Compounds were added to the reaction mixture just prior to the substrate. The enzymatic reaction kinetics was monitored through the apparition of fluorescence due to the hydrolysis of the peptidyl Ub-AMC or Ub-Rho bound over 20 or 30 minutes.
(§5) Medium value out of duplicates is reported.

[3] = system: MESSA cells; test: Cytotoxicity assay (PrestoBlue cell viability), MESSA; assay type: cell-based; conditions: Homo sapiens, MES-SA; 48 hours treatment; concentration inducing 50% cell mortality
Protocol: as §1
(§6) Messa, Messa DX5 and HCT116 were maintained in McCoy's supplemented with 10% fetal bovine serum, and 1% penicillin/streptomycin. PC-3, LNCaP cells were maintained in RPMI medium supplemented with 10% fetal bovine serum, and 1% penicilin/streptomycin and in the case of Messa DX5: 500 nM Doxorubicin was added to maintain selection pressure. HEK293 were maintained in DMEM medium supplemented with 10% fetal bovine serum, and 1% penicillin/streptomycin. Cells were maintained at 37° C. with 5% CO2, 95% air, and humid atmosphere. In the case of hormonal dependent LNCaP cells, 2 μM DiHydroTestosterone (DHT) was added or not—depending on the type of biological assay—for the same incubation period as compounds.
as §2

[4] = system: HEK293 cells; test: Cytotoxicity assay (PrestoBlue cell viability), HEK293; assay type: cell-based; conditions: Homo sapiens, 48 hours treatment
Protocol: as §1, §6, §2

[5] = biological target: T2, USP2^CD (purified catalytic domain of USP2) (Homo sapiens, UniProt O75604); test: Inhibition of purified USP2^CD enzymatic activity (Ub-AMC or Ub-Rho substrate); assay type: biochemical; conditions: for inhibition at 1 µM: 1 μM compound
T2 construct: The purified catalytic domain of USP2 (USP2^CD, in-house purified); His; made in house; host or cells: E. coli BL21 Gold
T2 sequence (O75604 267-599 limits assumed): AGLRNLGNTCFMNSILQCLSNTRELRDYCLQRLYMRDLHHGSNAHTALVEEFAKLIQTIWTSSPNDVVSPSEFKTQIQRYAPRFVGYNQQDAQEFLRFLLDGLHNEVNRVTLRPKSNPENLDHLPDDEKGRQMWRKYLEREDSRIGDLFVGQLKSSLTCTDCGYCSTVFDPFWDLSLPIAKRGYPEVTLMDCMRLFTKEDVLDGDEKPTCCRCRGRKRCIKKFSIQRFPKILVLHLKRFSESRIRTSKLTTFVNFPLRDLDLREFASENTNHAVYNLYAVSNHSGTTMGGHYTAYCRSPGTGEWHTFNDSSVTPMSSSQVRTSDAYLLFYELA
Protocol: as §3
For His-tagged USP2CD, cells were resuspended in buffer C (10 mM TRIS pH 8.0, 100 mM NaCl, 10 mM Imidazole) and lysed using a sonicator. The lysate was clarified by centrifugation and applied to Ni Sepharose6 Fast Flow resin (GE Healthcare). The resin was sequentially washed with buffer C, then with buffer C containing 50 mM Imidazole. Protein sample was eluted from the resin using buffer C containing 250 mM Imidazole. The eluted protein was buffer exchanged by gel-filtration on a Superdex 200 10/300 GL column (GE Healthcare) equilibrated in Buffer D (15 mM Bis-TRIS pH 6.0, 100 mM NaCl, 1 mM dithiothreitol (DTT)).
as §4, §5

[6] = system: PC-3 cells; test: Cytotoxicity assay (PrestoBlue cell viability), PC-3; assay type: cell-based; conditions: Homo sapiens, 48 hours treatment
Protocol: as §1, §6, §2

[7] = system: LNCaP cells; test: Cytotoxicity assay (PrestoBlue cell viability), LNCaP; assay type: cell-based; conditions: Homo sapiens, 48 hours treatment
Protocol: as §1, §6, §2

[8] = system: MESSA DX5 cells; test: Cytotoxicity assay (PrestoBlue cell viability), MESSA DX5; assay type: cell-based, human; conditions: Homo sapiens, MES-SA/Dx5; 48 hours treatment; chemoresistant line
Protocol: as §1, §6, §2

[9] = biological target: T3, USP2 full length (USP2^FL) (Homo sapiens, UniProt O75604); test: Inhibition of Ub-AMC hydrolysis by USP2 full length; assay type: biochemical; conditions: Ub-AMC at 1 μM, Table 1a; for inhibition at 1 µM: 1 μM compound; for inhibition at 5 µM: 5 μM compound; for inhibition at 25 µM: 25 μM compound; for inhibition at 50 µM: 50 μM compound
T3 construct: purchased BioSciences 80352
T3 sequence (O75604 1-605): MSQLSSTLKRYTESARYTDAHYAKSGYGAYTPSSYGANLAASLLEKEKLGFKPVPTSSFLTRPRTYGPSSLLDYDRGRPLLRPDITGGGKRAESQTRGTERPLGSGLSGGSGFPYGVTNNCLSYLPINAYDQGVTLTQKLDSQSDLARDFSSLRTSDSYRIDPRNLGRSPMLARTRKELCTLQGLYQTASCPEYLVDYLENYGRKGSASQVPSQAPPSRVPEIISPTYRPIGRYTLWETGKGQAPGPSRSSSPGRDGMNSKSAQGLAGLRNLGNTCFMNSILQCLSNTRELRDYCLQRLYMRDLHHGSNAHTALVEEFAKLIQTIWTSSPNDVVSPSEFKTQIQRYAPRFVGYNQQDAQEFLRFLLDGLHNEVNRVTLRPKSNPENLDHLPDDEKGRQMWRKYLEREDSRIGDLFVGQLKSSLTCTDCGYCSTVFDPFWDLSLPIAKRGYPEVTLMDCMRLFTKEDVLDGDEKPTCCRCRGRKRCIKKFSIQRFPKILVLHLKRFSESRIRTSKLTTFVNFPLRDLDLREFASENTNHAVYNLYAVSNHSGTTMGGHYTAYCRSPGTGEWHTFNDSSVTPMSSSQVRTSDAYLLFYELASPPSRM
Protocol: as §4

[10] = Ub-AMC substrate at 1 μM, Table 2b, read-out: IC50 USP8 CD
[11] = Ub-AMC substrate at 1 μM, Table 2b, read-out: IC50 USP2 CD
[12] = 0.1 μM compound, Ub-AMC at 1 μM, Table 1a
[13] = 0.5 μM compound, Ub-AMC at 1 μM, Table 1a

inhibition at 0.01 µM ([2]; 0.01 μM compound, Table 1d): 2%
inhibition at 0.05 µM ([2]; 0.05 μM compound, Table 1d): 21%
inhibition at 0.1 µM ([2]; 0.1 μM compound, Table 1d): -8%
inhibition at 0.5 µM ([2]; 0.5 μM compound, Table 1d): 63%
inhibition at 1 µM ([2]; Table 1b): 100%
inhibition at 1 µM ([2]; Table 1d): 83%
inhibition at 5 µM ([2]; 5 μM compound, Table 1b): 103%
inhibition at 5 µM ([2]; 5 μM compound, Table 1d): 77%
inhibition at 10 µM ([2]; 10 μM compound, Table 1d): 71%
inhibition at 25 µM ([2]; 25 μM compound, Table 1b): 96%
inhibition at 50 µM ([2]; 50 μM compound, Table 1b): 101%
IC50 [2, 10]: 0.5 µM
inhibition at 0.01 µM ([5]; 0.01 μM compound, Table 1c): -19%
inhibition at 0.05 µM ([5]; 0.05 μM compound, Table 1c): -3%
inhibition at 0.1 µM ([5]; 0.1 μM compound, Table 1c): 19%
inhibition at 0.5 µM ([5]; 0.5 μM compound, Table 1c): -20%
inhibition at 1 µM ([5]; Table 1b): 53%
inhibition at 1 µM ([5]; Table 1c): 44%
inhibition at 5 µM ([5]; 5 μM compound, Table 1c): 17%
inhibition at 10 µM ([5]; 10 μM compound, Table 1c): 9%
inhibition at 25 µM ([5]; 25 μM compound, Table 1b): 53%
inhibition at 50 µM ([5]; 50 μM compound, Table 1b): 63%
IC50 [5, 11]: > 10 µM
SMILES: COc1ccc(S(=O)(=O)Cc2nc3c(nc2CS(=O)(=O)c2ccc(OC)c(OC)c2)C(=O)c2ccccc2C3=O)cc1OC [OVM18]
EC50 [1]: > 3 µM
EC50 [3]: 1.3 µM
EC50 [4]: 2.5 µM
EC50 [6]: 3 µM
EC50 [7]: 2.1 µM
EC50 [8]: 2.5 µM

USP8^CD % inhibition [2, 12]: 42%
USP8^CD % inhibition [2, 13]: 97%
inhibition at 1 µM ([2]; Ub-AMC at 1 μM, Table 1a): 98%
IC50 ([2]; Ub-Rhodamine substrate, Table 2a, read-out: IC50 against purified USP8^CD): 0.05 µM
IC50 ([5]; Ub-Rhodamine substrate, Table 2a, read-out: IC50 against purified USP2^CD): 1.7 µM
inhibition at 1 µM [9]: 46%
inhibition at 5 µM [9]: 79%
inhibition at 25 µM [9]: 94%
inhibition at 50 µM [9]: 93%
SMILES: O=C1c2ccccc2C(=O)c2nc(CS(=O)(=O)c3ccc([N+](=O)[O-])cc3)c(CS(=O)(=O)c3ccc([N+](=O)[O-])cc3)nc21 [PCR7991]

USP8^CD % inhibition [2, 12]: 11%
USP8^CD % inhibition [2, 13]: 35%
inhibition at 1 µM ([2]; Ub-AMC at 1 μM, Table 1a): 6%
USP8^CD % inhibition ([2]; 5 μM compound, Ub-AMC at 1 μM, Table 1a): 43%
USP8^CD % inhibition ([2]; 25 μM compound, Ub-AMC at 1 μM, Table 1a): 90%
USP8^CD % inhibition ([2]; 50 μM compound, Ub-AMC at 1 μM, Table 1a): 100%
IC50 [2, 10]: 2.1 µM
IC50 [5, 11]: 6 µM
inhibition at 1 µM [9]: 30%
inhibition at 5 µM [9]: 50%
inhibition at 25 µM [9]: 89%
inhibition at 50 µM [9]: 99%
SMILES: O=C1c2ccccc2C(=O)c2nc(CCl)c(CCl)nc21 [PCR8146]
